Key:
[1] = cited from earlier work
[2] = patients taking Alpelisib; cited from earlier work
[3] = test system: pEGFR, pAkt, pErk½ signaling in H508 cells; test: Western blot of pEGFR, pAkt, pErk½ signaling, 2 hour incubation, H508 cells; format: cell-based; settings: 2 hour incubation with EGF, FIG. 20

## CC(=O)Nc1cccc(-n2c(=O)n(C3CC3)c(=O)c3c(Nc4ccc(I)cc4F)n(C)c(=O)c(C)c32)c1 [Trametinib, N-[3-[3-cyclopropyl-5-(2-fluoro-4-iodoanilino)-6,8-dimethyl-2,4,7-trioxopyrido[4,3-d]pyrimidin-1-yl]phenyl]acetamide]
[1]; human, in vivo
  Elimination half-life: 93.6 to 115 h
[1]; oral administration, patients with BRAF V600 mutation-positive melanoma
  peak plasma concentration occurred post-dose (Tmax): 1.5 h
[1]; single 2 mg oral dose
  bioavailability: 72%

## COC(=O)N[C@@H](C)CNc1nccc(-c2cn(C(C)C)nc2-c2cc(Cl)cc(NS(C)(=O)=O)c2F)n1 [Encorafenib, methyl N-[(2S)-1-[[4-[3-[5-chloro-2-fluoro-3-(methanesulfonamido)phenyl]-1-propan-2-ylpyrazol-4-yl]pyrimidin-2-yl]amino]propan-2-yl]carbamate]
[1]; after oral administration
  median Tmax: 2 h
[1]; oral administration
  dose absorbed: At least 86%

## Cc1nc(NC(=O)N2CCC[C@H]2C(N)=O)sc1-c1ccnc(C(C)(C)C(F)(F)F)c1 [Alpelisib, (2S)-1-N-[4-methyl-5-[2-(1,1,1-trifluoro-2-methylpropan-2-yl)pyridin-4-yl]-1,3-thiazol-2-yl]pyrrolidine-1,2-dicarboxamide]
[2]
  dose dependent benefit from treatment: advantage of 300 mg once daily over 150 mg twice daily: 22%
  dose dependent benefit from treatment: advantage of a 200 mg daily dose over a 100 mg dose: 51%
[3]
  pAkt: inhibit pAkt
  pEGFR or pErk½ signaling: do not affect

From patent US12636376B2, “Methods and compositions for use of growth factor antibodies in combination with non-tyrosine targeting kinase inhibitors” (In3Bio Ltd., priority 2019, dated 2026)
